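96-well plates; 48 h exposure; 5 concentrations. Endpoints by linear interpolation between flanking doses. Not reached: highest tested concentration assigned. GI50 is the concentration that inhibits growth by half.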 Activity calls are given as the source filed them. Cut-off read from the data, not from the text of the source: active = GI50 up to about 1.1 µM and inactive = higher.
Assays:
Assay in all cases: NCI tumour cell line growth inhibition, 48 h
DMS-114 = tested on: DMS-114
HCC 2998 = tested on: HCC 2998
ACHN = tested on: ACHN
DLD-1 = tested on: DLD-1
SF-295 = tested on: SF-295
COLO 205 = tested on: COLO 205
SR = tested on: SR
HOP-62 = tested on: HOP-62
NCI-H522 = tested on: NCI-H522
DMS-273 = tested on: DMS-273
HCT-15 = tested on: HCT-15
SN12C = tested on: SN12C
SK-MEL-28 = tested on: SK-MEL-28
A498 = tested on: A498
HL-60 = tested on: HL-60
SW-620 = tested on: SW-620
786-0 = tested on: 786-0
HOP-18 = tested on: HOP-18
UACC-62 = tested on: UACC-62
UACC-257 = tested on: UACC-257
A549 = tested on: A549
UO-31 = tested on: UO-31
OVCAR-8 = tested on: OVCAR-8
XF498 = tested on: XF498
IGROV-1 = tested on: IGROV-1
RPMI-8226 = tested on: RPMI-8226
SF-539 = tested on: SF-539
KM-20L2 = tested on: KM-20L2
NCI-H23 = tested on: NCI-H23
K562 = tested on: K562
NCI-H226 = tested on: NCI-H226
M14 = tested on: M14
EKVX = tested on: EKVX
CCRF-CEM = tested on: CCRF-CEM
Malme-3M = tested on: Malme-3M
OVCAR-4 = tested on: OVCAR-4
U-251 = tested on: U-251
SK-MEL-5 = tested on: SK-MEL-5
RXF 393 = tested on: RXF 393
HCT-116 = tested on: HCT-116
HOP-92 = tested on: HOP-92
HT-29 = tested on: HT-29
MOLT-4 = tested on: MOLT-4
M19-MEL = tested on: M19-MEL
SNB-78 = tested on: SNB-78
SNB-19 = tested on: SNB-19
SK-OV-3 = tested on: SK-OV-3
SNB-75 = tested on: SNB-75
LXFL 529 = tested on: LXFL 529
SF-268 = tested on: SF-268
LOX IMVI = tested on: LOX IMVI
TK-10 = tested on: TK-10
KM12 = tested on: KM12
CAKI-1 = tested on: CAKI-1
OVCAR-3 = tested on: OVCAR-3
SK-MEL-2 = tested on: SK-MEL-2
NCI-H460 = tested on: NCI-H460

Measured: GI50

COc1ccc(/C(Cl)=C/c2cc(OC)ccc2OC)cc1
inactive: DMS-114 42.3 µM | HCC 2998 87.5 µM | ACHN 65.8 µM | DLD-1 79.4 µM | SF-295 51.4 µM | COLO 205 > 100 µM | SR 30.6 µM | HOP-62 > 100 µM | NCI-H522 46.9 µM | DMS-273 35.2 µM | SN12C 56.4 µM | SK-MEL-28 79.6 µM | A498 92.9 µM | HL-60 28.4 µM | SW-620 48.1 µM | 786-0 81.8 µM | HOP-18 > 100 µM | UACC-62 38.4 µM | UACC-257 > 100 µM | A549 75.2 µM | UO-31 98.9 µM | OVCAR-8 61.9 µM | XF498 71.3 µM | IGROV-1 > 100 µM | RPMI-8226 34.2 µM | SF-539 64.7 µM | KM-20L2 93.3 µM | NCI-H23 53 µM | K562 47 µM | NCI-H226 44.7 µM | M14 63.8 µM | EKVX > 100 µM | CCRF-CEM 31.8 µM | Malme-3M 93.3 µM | OVCAR-4 > 100 µM | U-251 84.7 µM | SK-MEL-5 64.7 µM | RXF 393 20.5 µM | HCT-116 48.8 µM | HOP-92 40.8 µM | HT-29 62.2 µM | MOLT-4 49.9 µM | M19-MEL 80 µM | SNB-78 79.6 µM | SNB-19 > 100 µM | SK-OV-3 99.8 µM | SNB-75 40.1 µM | LXFL 529 72.1 µM | SF-268 58.2 µM
53.2 µM: HCT-15

CC(C)C(CCOS(=O)(=O)O)CCC(C)[C@H]1[C@@H](O)C(O)C2[C@]3(O)C[C@@H](O)C4(O)C[C@@H](O)CC[C@]4(C)C3CC[C@@]21C (stereo partly drawn)
inactive: DMS-114 > 100 µM | HCC 2998 > 100 µM | LOX IMVI > 100 µM | ACHN > 100 µM | DLD-1 > 100 µM | SF-295 > 100 µM | COLO 205 > 100 µM | SR > 100 µM | HOP-62 > 100 µM | NCI-H522 > 100 µM | DMS-273 > 100 µM | SN12C > 100 µM | SK-MEL-28 > 100 µM | HL-60 > 100 µM | TK-10 > 100 µM | SW-620 > 100 µM | 786-0 > 100 µM | HOP-18 > 100 µM | UACC-62 > 100 µM | A549 > 100 µM | UO-31 > 100 µM | OVCAR-8 > 100 µM | XF498 > 100 µM | IGROV-1 > 100 µM | RPMI-8226 > 100 µM | SF-539 > 100 µM | KM-20L2 > 100 µM | NCI-H23 > 100 µM | K562 > 100 µM | NCI-H226 > 100 µM | M14 > 100 µM | KM12 > 100 µM | EKVX > 100 µM | CCRF-CEM > 100 µM | Malme-3M > 100 µM | OVCAR-4 > 100 µM | U-251 > 100 µM | SK-MEL-5 > 100 µM | RXF 393 > 100 µM | HCT-116 > 100 µM | CAKI-1 > 100 µM | HOP-92 > 100 µM | OVCAR-3 > 100 µM | HT-29 > 100 µM | SK-MEL-2 > 100 µM | M19-MEL > 100 µM | SNB-78 > 100 µM | SNB-19 > 100 µM | SK-OV-3 > 100 µM | NCI-H460 > 100 µM | LXFL 529 > 100 µM | SF-268 > 100 µM
> 100 µM: HCT-15

Reference: ChEMBL document CHEMBL1201862, “PubChem BioAssay data set” (2004)
